In ChEMBL document CHEMBL1135405, “Solid-phase library synthesis, screening, and selection of tight-binding reduced peptide bond inhibitors of a recombinant Leishmania mexicana cysteine protease B” (J Med Chem, 2002):
Square brackets hold non-standard residues; d marks the D form. Peptide text beside a SMILES is read from it. Phe(4-NO2) = N[C@@H](Cc1ccc([N+](=O)[O-])cc1)C(=O)O; 2Abz = Nc1ccccc1C(=O)O

B1: Human rhinovirus A protease (Human rhinovirus sp.), Q4U254 (protein)
chain: AFRPCNVNTKIGNAKCCPFVCGKAVTFKDRSTCSTYNLSSSLHHILEEDKRRRQVVDVMSAIFQGPISLDAPPPPAIADLLQSVRTPRVIKYCQIIMGHPAECQVERDLNIANSIIAIIANIISIAGIIFVIYKLFCSLQGPYSGEPKPKTKVPERRVVAQGPEEEFGRSILKNNTCVITTGNGKFTGLGIHDRILIIPTHADPGREVQVNGVHTKVLDSYDLYNRDGVKLEITVIQLDRNEKFRDIRKYIPETEDDYPECNLALSANQDEPTIIKVGDVVSYGNILLSGNQTARMLKYNYPTKSGYCGGVLYKIGQILGIHVGGNGRDGFSAMLLRSYFTGQIKVNKHATECGLPDIQTIHTPSKTKLQPSVFYDVFPGSKEPAVLTDNDPRLEVNFKEA

Assays:
[1] = system: Cysteine protease B (Leishmania mexicana); assay: Inhibitory potency against Cysteine protease B, expressed as kinetic constant (kcat/Km)
[2] = compound: C[C@@H](O)[C@H](NC(=O)[C@H](CCCN=C(N)N)NC(=O)[C@H](Cc1ccccc1)NC(=O)[C@H](CCCN=C(N)N)NC(=O)[C@@H]1CCCN1C(=O)[C@@H](N)Cc1ccc([N+](=O)[O-])cc1)C(=O)NCC(=O)N[C@@H](CO)C(=O)N[C@@H](CCCCNC(=O)c1ccccc1N)C(=O)NCC(=O)O; assay: Inhibitory potency against Cysteine protease B, expressed as kinetic constant (Km); details: Leishmania mexicana

Molecule	k cat/Km [1]	Km [2]
C[C@@H](O)[C@H](NC(=O)[C@H](CCCN=C(N)N)NC(=O)[C@H](Cc1ccccc1)NC(=O)[C@H](CCCN=C(N)N)NC(=O)[C@@H]1CCCN1C(=O)[C@@H](N)Cc1ccc([N+](=O)[O-])cc1)C(=O)NCC(=O)N[C@@H](CO)C(=O)N[C@@H](CCCCNC(=O)c1ccccc1N)C(=O)NCC(=O)O (H-[Phe(4-NO2)]PRFRTGSK(2Abz)G-OH)	1300 mM/s	
B1		1.13 µM
